Data: patent US9528990B2, “Fluorogenic/fluorescent probes derivative from sulfoxanthene, and use thereof” (bioMérieux, priority 2014, dated 2016)

Legend:
E. coli K12 = assay: Bacterial azoreduction overnight, compared with Methyl Red; format: cell-based; conditions: 100 μM, overnight 37° C.
Procedure: a) The bacterial reduction of SR101-Q-CO2H was compared to the one of Methyl Red, an azo dye. Each molecule at 100 μM in Trypcase Soya Broth in presence 7.5*10^7 colonies forming unit (cfu) of E. coli K12 was incubated overnight at 37° C. The fluorescence produced by the azoreduction of Methyl Red was measured at 395 nm under an excitation wavelength of 250 nm. The fluorescence produced by the azoreduction of SR101-Q-CO2H was measured at 580 nm under an excitation wavelength of 550 nm. For Methyl Red the ratio between medium with and without bacteria was 469/184 (×2.5). For SR101-Q-CO2H, it was 19 times upper: 17269/363 (×48).

[1] = molecular target: nitroreductase from Escherichia coli (NfsA) (Escherichia coli, UniProt P17117); assay: Kinetic study of SR101-NO2 with purified nitroreductase; format: biochemical
Procedure: A kinetic study was carried out by incubating the substrate SR101-NO2 in PBS at 37.5° C., at a concentration of about 5 μM.
Successive additions of NADH and nitroreductase from Escherichia coli (NfsA=4×2.5 μg) were performed and the fluorescence at 575 nm (emission maximum of SR101-110) was measured, under an excitation wavelength of 500 nm.

[2] = test system: E. coli strain (ATCC 25922); assay: Reduction of SR101-NO2 by growing E. coli cells, followed by fluorescence; format: cell-based, Escherichia coli; conditions: about 10^6 cfu/ml, Trypcase Soya Broth, 37° C.; 0-100 μM as SR101-110/SR101-NO2 about 10/90; ex 550 nm, em 580 nm (FIG. 1c)
Procedure: The reduction of SR101-NO2 by an E. coli strain (ATCC 25922), known for its nitroreduction ability, was analyzed in fluorescence.
This kinetic study was carried out with an initial concentration of cells around 10^6 cfu/ml, growing in Trypcase Soya Broth at 37° C., in presence of different concentrations of fluorogenic substrate (from 0 μM to 100 μM). For this study, said fluorogenic substrate is used in the form of a SR101-110/SR101-NO2 (with a ratio of about 10/90).
The fluorescence at 580 nm was measured, under an excitation wavelength of 550 nm.

[3] = test system: sulfatase from Helix pomatia; assay: Kinetic study with sulfatase; format: biochemical; conditions: about 10 μM, PBS pH 7.4, 7.8 units sulfatase, 37° C.; ex 540 nm
Procedure: A kinetic study of SR101-NaphtO(SO3H) was carried out by incubating this fluorogenic substrate, previously solubilized in phosphate buffered saline (pH 7.4) at a concentration of about 10 μM, with 7.8 units of a sulfatase from Helix pomatia, at 37° C. The evolution of the intensity of fluorescence at 600 nm, emitted under an excitation wavelength of 540 nm, was recorded and is presented in FIG. 6.

[4] = Chemically simulated myeloperoxidase activity with sodium hypochlorite; conditions: about 10 μM, PBS pH 7.4, 150 equivalents sodium hypochlorite, 25° C.; ex 540 nm
Procedure: A kinetic study of SR101-NaphtO(para-aminophenyl) acid was carried out by incubating this fluorogenic substrate, previously solubilized in phosphate buffered saline (pH 7.4) at a concentration of about 10 μM, with 150 equivalents of sodium hypochlorite, at 25° C.
This chemical procedure using sodium hypochlorite is routinely used to simulate a myeloperoxidase activity (Shepherd et al., Chemistry and Biology, 2007, 14: 1221-1231).
The evolution of the intensity of fluorescence at 650 nm, emitted under an excitation wavelength of 540 nm, was recorded and is presented in FIG. 7.

pig liver esterase (PLE) = assay: Kinetic study with carboxylesterase; format: biochemical; conditions: about 5 μM, PBS pH 7.4, 10 units PLE, 37° C.; ex 540 nm (SR101-NaphtOAc) or 530 nm (SR101-NaphtO-lauric acid)
Procedure: 1. A kinetic study of SR101-NaphtOAc was carried out by incubating this fluorogenic substrate, previously solubilized in phosphate buffered saline (pH 7.4) at a concentration of about 5 μM, with 10 units of pig liver esterase (PLE), at 37° C. The evolution of the intensity of fluorescence at 600 nm, emitted under an excitation wavelength of 540 nm, was recorded and is presented in FIG. 5a. 2. A kinetic study of SR101-NaphtO-lauric acid was carried out by incubating this fluorogenic substrate, previously solubilized in phosphate buffered saline (pH 7.4) at a concentration of about 5 μM, with 10 units of pig liver esterase (PLE), at 37° C. The evolution of the intensity of fluorescence at 600 nm, emitted under an excitation wavelength of 530 nm, was recorded and is presented in FIG. 5b.

[5] = emitted fluorescence before and after the reduction (FIG. 1b)

Sequence of nitroreductase from Escherichia coli (NfsA) (P17117 whole entry): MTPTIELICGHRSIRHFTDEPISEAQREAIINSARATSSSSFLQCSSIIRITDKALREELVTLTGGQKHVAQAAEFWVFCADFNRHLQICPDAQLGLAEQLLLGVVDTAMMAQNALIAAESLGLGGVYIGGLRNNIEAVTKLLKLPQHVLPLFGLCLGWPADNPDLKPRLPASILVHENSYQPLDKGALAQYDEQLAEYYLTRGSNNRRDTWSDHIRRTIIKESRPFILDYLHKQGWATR

Structure (SMILES): CN(C)c1ccc(/N=N/c2ccccc2C(=O)O)cc1 [Methyl Red]
- fluorescence of medium with bacteria (E. coli K12; Trypcase Soya Broth, 7.5*10^7 cfu, Methyl Red ex 250/em 395 nm, SR101-Q-CO2H ex 550/em 580 nm): 469
- ratio between medium with and without bacteria (×) (E. coli K12): 2.5

Structure (SMILES): O=[N+]([O-])c1ccc2c(c1)Oc1c3c4c(cc1=C2c1ccc(S(=O)(=O)O)cc1S(=O)(=O)[O-])CCC[N+]=4CCC3 [SR101-NO2]
- reduction of the substrate by nitroreductase ([1]; 5 μM substrate, total 10 μg enzyme (4×2.5 μg), after an hour of incubation at 37.5° C.): complete reduction
- influence of NADH alone on the evolution of the fluorescence ([1]; NADH 0.5 mM, no enzyme, about 5 μM substrate in PBS, 37.5° C., ex 500 nm, em 575 nm): did not influence
- fluorescence enhancement (factor) [1, 5]: 15
- quenching efficiency [1, 5]: 92%
- nitroreduction by growing cells (fluorescence evolution) [2]: progressive nitroreduction

Structure (SMILES): O=S(=O)(O)Oc1ccc2c3c(ccc2c1)C(c1ccc(S(=O)(=O)[O-])cc1S(=O)(=O)O)=c1cc2c4c(c1O3)CCC[N+]=4CCC2 [SR101-NaphtO(SO3H)]
- fluorescence at 600 nm after addition of the sulfatase [3]: remarkable fluorescence enhancement

Structure (SMILES): Nc1ccc(Oc2ccc3c4c(ccc3c2)C(c2ccc(S(=O)(=O)O)cc2S(=O)(=O)O)=c2cc3c5c(c2O4)CCC[N+]=5CCC3)cc1 [SR101-NaphtO(para-aminophenyl)]
- fluorescence at 650 nm after addition of sodium hypochlorite [4]: remarkable fluorescence enhancement

Structure (SMILES): CCCCCCCCCCCC(=O)Oc1ccc2c3c(ccc2c1)C(c1ccc(S(=O)(=O)O)cc1S(=O)(=O)O)=c1cc2c4c(c1O3)CCC[N+]=4CCC2 [SR101-NaphtO-lauric acid]
- fluorescence at 600 nm after addition of the esterase (pig liver esterase (PLE)): remarkable fluorescence enhancement

Structure (SMILES): CC(=O)Oc1ccc2c3c(ccc2c1)C(c1ccc(S(=O)(=O)[O-])cc1S(=O)(=O)O)=c1cc2c4c(c1O3)CCC[N+]=4CCC2 [SR101-NaphtOAc]
- fluorescence at 600 nm after addition of the esterase (pig liver esterase (PLE)): remarkable fluorescence enhancement
